The test system of series [1] is C57BL/6J mice. Nature of the series: antibody subtyping of anti-MUC1 and anti-OVA IgG by class-specific ELISA. It counts as in vivo, mouse. An excerpt:
Production of other mouse IgG subtypes, including IgG2a and IgG3, was low or negligible, as indicated by class-specific ELISA. Toxicity remained drastically lower for all four variants compared to NQS-21 and SQS-21 (FIG. 5f).

The subject of series [2] is C57BL/6J mice. Briefly: preclinical mouse vaccination model, four-component vaccine (MUC1-KLH, OVA, GD3-KLH), antibody titers by ELISA. The series is classed as in vivo. The settings on record: 20 and 50 μg doses. Here is the method:
(§1) Groups of five mice (C57BL/6J, female, 6-8 weeks of age) were vaccinated with a three-component vaccine consisting of MUC1-KLH ([…]) and OVA ([…]), or a four-component vaccine that also included GD3-KLH ([…]). Antigens were co-administered with the adjuvant of interest ([…]) or without adjuvant (no-adjuvant control) in phosphate buffered saline (PBS, […]) via subcutaneous injections on days 0, 7, and 14, followed by a booster on day 65. Mouse sera were collected at day 72 and antibody titers against each antigen were determined by ELISA. Statistical significance of each antibody response compared to the no-adjuvant control was assessed using a two-tailed unpaired Student's t-test with CI=95%. As an initial, general assessment of toxicity, mouse weight loss was monitored on days 0, 1, 2, 3, and 7 after the first vaccination. These animal experiments were conducted as described in MSKCC Institutional Animal Care and Use Committee (IACUC) protocol #97-11-051.
These saponin variants were evaluated with a four-component vaccine comprised of MUC1-KLH, OVA, and the poorly immunogenic glycolipid GD3 (melanoma, neuroblastoma, sarcoma antigen) conjugated to KLH (GD3-KLH) (FIGS. 5B-E; see FIG. 16 for full data with both 20 and 50 μg doses).
For orientation: ELISA stands for enzyme-linked immunosorbent assay.

Series [3] has as its system C57BL/6J mice. Nature of the series: preclinical mouse vaccination model, three-component vaccine (MUC1-KLH, OVA), antibody titers by ELISA. It counts as in vivo. Here is the method:
A radioiodine (^131I) was introduced into the QS-21 saponin scaffold to enable in vivo biodistribution studies. The non-radiolabeled aryl iodide 6 (SQS-0-0-5-18) by acylation of amine 2 (SQS-0-0-5-11) was synthesized (FIG. 1B). Because no in vitro model exists to assess adjuvant activity, biological evaluation of aryl iodide 6 was carried out in a preclinical mouse vaccination model involving a multi-antigen formulation comprised of the immunogenic peptide MUC1 (prostate and breast cancer antigen, non-glycosylated tandem repeat) conjugated to the highly immunogenic KLH carrier protein (MUC1-KLH) and OVA, a reliable immunogen that induces both antibody and T-cell responses in mice. Antibody responses against each of the three antigens, co-administered with the adjuvant of interest, were determined by ELISA.
as §1

Series [4] can be described thus: toxicity assessment by mouse weight loss after first vaccination. It counts as in vivo. The settings on record: for toxicity assessed by mouse weight loss: three-component vaccine, median percent weight loss. Here is the method:
as §1

Entries after “also recorded” stand apart in the source; their conditions may differ.

With `C[C@H]1O[C@@H](OC2C(O)C(NC(=O)CCCCCNC(=O)c3ccc(I)cc3)[C@H](CO)O[C@H]2OC(=O)[C@]23CCC(C)(C)CC2C2=CCC4C5(C)CC[C@H](O)[C@](C)(CO)[C@@H]5CC[C@]4(C)[C@]2(C)CC3O)C(O)C(O)C1O[C@@H]1OCC(O)C(O)C1O` (some centres unmarked) [compound 19], in series [1], the “IgG subtypes of anti-MUC1 and anti-OVA antibodies” value was “significant bias toward the mouse IgG1 and IgG2b subtype”. For the same compound, the “antibody responses (anti-KLH, anti-MUC1, anti-OVA IgG, anti-GD3 IgM and IgG)” value in series [2] is “antibody titers slightly below those of echinocystic acid derivative 20; also recorded: antibody responses similar to the complete, branched trisaccharide-containing saponin 6”. Turning to `C[C@H]1O[C@@H](OC2C(O)C(NC(=O)CCCCCNC(=O)c3ccc(I)cc3)[C@H](CO)O[C@H]2OC(=O)C23CCC(C)(C)CC2C2=CCC4C5(C)CC[C@H](O)[C@](C)(C=O)[C@@H]5CC[C@]4(C)[C@]2(C)CC3)C(O)C(O)C1O[C@@H]1OCC(O)C(O)C1O` (some centres unmarked) [compound 21], the “antibody responses (anti-KLH, anti-MUC1, anti-OVA IgG, anti-GD3 IgM and IgG)” value in series [2] is listed as “lower antibody responses in all cases except the anti-GD3 IgG response”. With `C[C@@H]1O[C@@H](O[C@H]2[C@H](OC(=O)[C@]34CCC(C)(C)C[C@H]3C3=CC[C@@H]5[C@@]6(C)CC[C@H](O)[C@@](C)(C=O)[C@@H]6CC[C@@]5(C)[C@]3(C)C[C@H]4O)O[C@H](CO)[C@H](NC(=O)CCCCCNC(=O)c3ccc(I)cc3)[C@@H]2O)[C@H](O)[C@H](O)[C@H]1O[C@@H]1OC[C@@H](O)[C@H](O)[C@H]1O` [compound 16], the “KLH and MUC1 antibody responses” value in series [3] (three-component vaccine, exception anti-MUC1 titers at lower dose (20 μg)) is “comparable to those of parent aryl iodide 6, NQS-21, and SQS-21”. The “toxicity assessed by mouse weight loss” value in series [4] is “much lower toxicity than NQS-21 and SQS-21”. For the compound `C[C@H]1O[C@@H](OC2C(O)C(NC(=O)CCCCCNC(=O)c3ccc(I)cc3)[C@H](CO)O[C@H]2OC(=O)C23CCC(C)(C)CC2C2=CCC4C5(C)CC[C@H](O)C(C)(C)[C@@H]5CC[C@]4(C)[C@]2(C)C[C@@H]3O)C(O)C(O)C1O[C@@H]1OCC(O)C(O)C1O` (some centres unmarked) [compound 20], the “IgG subtypes of anti-MUC1 and anti-OVA antibodies” value in series [1] is “significant bias toward the mouse IgG1 and IgG2b subtype”. Besides, the “antibody responses (anti-KLH, anti-MUC1, anti-OVA IgG, anti-GD3 IgM and IgG)” value in series [2] is reported as “highest antibody responses to all four antigens; also recorded: immunostimulatory activity generally rivaling that of SQS-21”. In addition, in series [4] (four-component vaccine, one week after first injection), the “toxicity (mouse weight loss)” value is reported as “dramatically reduced toxicity compared to the natural product”. For `C[C@@H]1O[C@@H](O[C@H]2[C@H](OC(=O)[C@]34CCC(C)(C)C[C@H]3C3=CC[C@@H]5[C@@]6(C)CC[C@H](O)[C@@](C)(CO)[C@@H]6CC[C@@]5(C)[C@]3(C)CC4)O[C@H](CO)[C@H](NC(=O)CCCCCNC(=O)c3ccc(I)cc3)[C@@H]2O)[C@H](O)[C@H](O)[C@H]1O[C@@H]1OC[C@@H](O)[C@H](O)[C@H]1O` [compound 22], the “antibody responses (anti-KLH, anti-MUC1, anti-OVA IgG, anti-GD3 IgM and IgG)” value in series [2] is “lower antibody responses in all cases except the anti-GD3 IgG response”.

As to `C[C@H]1O[C@@H](OC2C(O)C(NC(=O)CCCCCNC(=O)c3ccc(I)cc3)[C@H](CO)O[C@H]2OC(=O)[C@]23CCC(C)(C)CC2C2=CCC4C5(C)CC[C@H](O)C(C)(C)[C@@H]5CC[C@]4(C)[C@]2(C)CC3)C(O)C(O)C1O[C@@H]1OCC(O)C(O)C1O` (some centres unmarked) [compound 18], the “antibody titers (anti-KLH, anti-MUC1, anti-OVA IgG)” value in series [3] (three-component vaccine MUC1-KLH + OVA, s.c. days 0, 7, 14, booster day 65, sera day 72) is “lower antibody titers against all three antigens compared to the parent quillaic acid derivative 16”. For the same compound, the “toxicity assessed by mouse weight loss” value in series [4] is recorded as “low toxicity”.

For the origin of these results see patent US12187755B2, “Minimal saponin analogues, synthesis and use thereof” (MEMORIAL SLOAN-KETTERING CANCER CENTER, priority 2014, dated 2025).
